System: Z. mobilis strain 8b
Experiment: Effect of acetamide and acetic acid on Zymomonas growth (toxicity test in shake flasks)
Assay type: cell-based, Zymomonas mobilis
Details: pH 6.0, 30° C., 150 rpm, FIG. 1
Text: Fermentation medium was composed of 10 g/L yeast extract, 2 g/L KH2PO4, 70 g/L glucose, 40 g/L xylose and 0.1 M MES buffer.

[1] = medium supplemented with 6 g/L acetamide vs unsupplemented control
[2] = medium supplemented with 7.2 g/L acetic acid vs unsupplemented control

| SMILES | final density of Z. mobilis [1] | growth rate of Z. mobilis [1] | cell yield (as measured by dry cell mass) [2] | growth rate of Z. mobilis [2] |
| --- | --- | --- | --- | --- |
| CC(N)=O [acetamide] | no influence | no influence | – | – |
| CC(=O)O [acetic acid] | – | – | lower cell yield | reduced growth rate |
